# Measured values taken from article PMC11928863 (Computational and Structural Biotechnology Journal, 2025).
# Target: T1, CD2068 (Clostridioides difficile, UniProt Q188D7)
# T1 sequence (Q188D7 1-541): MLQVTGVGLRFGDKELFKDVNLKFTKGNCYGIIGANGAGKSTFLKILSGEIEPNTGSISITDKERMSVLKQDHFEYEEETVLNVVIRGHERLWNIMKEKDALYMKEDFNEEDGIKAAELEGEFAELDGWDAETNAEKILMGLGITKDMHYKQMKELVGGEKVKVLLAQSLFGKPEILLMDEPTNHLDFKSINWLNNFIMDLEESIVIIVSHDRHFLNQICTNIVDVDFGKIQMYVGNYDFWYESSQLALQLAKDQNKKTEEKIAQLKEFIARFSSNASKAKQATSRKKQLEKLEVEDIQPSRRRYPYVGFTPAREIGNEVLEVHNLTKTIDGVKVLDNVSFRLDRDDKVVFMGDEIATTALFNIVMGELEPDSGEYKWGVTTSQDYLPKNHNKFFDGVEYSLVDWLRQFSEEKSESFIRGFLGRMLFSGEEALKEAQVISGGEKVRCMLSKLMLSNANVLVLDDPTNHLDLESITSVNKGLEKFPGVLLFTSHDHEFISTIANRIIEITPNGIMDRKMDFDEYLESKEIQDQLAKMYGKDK
# Assay: malachite green ATPase assay, purified CD2068 with […] ATP
# Assay type: biochemical
structure (smiles),measurement,value
Nc1ncnc2c1ncn2[C@@H]1O[C@H](COP(=O)(O)OP(=O)(O)OP(=O)(O)O)[C@@H](O)[C@H]1O [ATP],"malachite green ATPase assay, purified CD2068 with 1 mM ATP",52.52 nmol/min/mg
